Source: patent US20240191267A1, “Tropane Alkaloid Transporters and Methods of Making Tropane Alkaloids Using the Same” (priority 2021, published 2024)
Several values for one entry are separate records, joined by “and”; a condition that tells them apart may be missing. Equal entries are not always repeated.

Tests used:
[1] = system: AbUGT84A27 active site mutants; assay: Conversion of fed phenylpropanoids to glucosides by yeast expressing AbUGT active site mutants; assay type: cell-based, Atropa belladonna; conditions: F130Y, L205F, I292Q point mutants of AbUGT in CSY1251; 500 μM substrate, 72 h
Experimental: FIG. 36 illustrates the substrate specificity of AbUGT84A27 active site mutants. […] AbUGT wild-type, active site mutants, or a BFP negative control were expressed from low-copy plasmids in CSY1251. Transformed cells were cultured in selective media supplemented with 500 μM PLA, CA, or FA for 72 h prior to LC-MS/MS analysis. Data represent the mean of n=3 biologically independent samples ±standard deviation.
6.1) As wild-type yeast produce only trace levels of PLA, production of this TA precursor must be increased to permit sufficient accumulation of downstream TAs. To improve PLA production, heterologous phenylpyruvate reductases (PPRs) may be expressed in the engineered host cells. PPR orthologs from E. coli, Lactobacillus, A. belladonna, and Wickerhamia fluorescens, as well as lactate dehydrogenases (LDHs) from Bacillus and Lactobacillus with reported activity on 3-phenylpyruvate (Table 1) were screened for activity in yeast by expressing each enzyme from a low-copy plasmid in CSY1251 and measuring PLA production by LC-MS/MS after 72 h of growth in selective media. […] As such, WfPPR was selected for integration into CSY1251 to make strain CSY1287. […] 6.4.2.1) Extra copies of PGM2 and UGP1 were expressed from low-copy plasmids in CSY1288 and PLA glucoside production was measured following 72 h of growth in selective media. […]

[2] = target: T1, AbUGT (UDP-glucosyltransferase 84A27) (Atropa belladonna, UniProt A0A3B6XRM0); assay: Conversion of fed phenylpropanoids to glucosides by yeast expressing AbUGT; assay type: cell-based; conditions: AbUGT from low-copy plasmid in CSY1251; 500 μM substrate, 72 h, selective media
T1 construct: expressed in transfected cells; host or cells: Saccharomyces cerevisiae CSY1251 (tropine-producing, CEN.PK2-derived), low-copy plasmid
T1 sequence (A0A3B6XRM0 1-490): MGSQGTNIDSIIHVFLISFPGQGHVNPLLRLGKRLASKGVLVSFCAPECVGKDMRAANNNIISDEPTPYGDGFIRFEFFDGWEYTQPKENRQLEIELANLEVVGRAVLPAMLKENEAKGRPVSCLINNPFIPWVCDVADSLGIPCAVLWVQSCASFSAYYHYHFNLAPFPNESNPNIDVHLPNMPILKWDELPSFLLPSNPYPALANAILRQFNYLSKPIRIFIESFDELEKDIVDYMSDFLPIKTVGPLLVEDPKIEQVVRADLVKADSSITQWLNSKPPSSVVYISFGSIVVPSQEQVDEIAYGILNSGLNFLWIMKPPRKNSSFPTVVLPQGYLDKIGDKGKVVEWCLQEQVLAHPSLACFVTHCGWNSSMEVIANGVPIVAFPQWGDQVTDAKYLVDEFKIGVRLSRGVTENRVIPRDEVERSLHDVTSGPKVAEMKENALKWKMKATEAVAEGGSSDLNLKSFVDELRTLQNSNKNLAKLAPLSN
Experimental: (B) Heatmap of percent conversion of fed phenylpropanoids to glucosides by yeast engineered for UGT84A27 expression. UGT84A27 orthologs or a BFP negative control were expressed from low-copy plasmids in CSY1251. Transformed cells were cultured in selective media supplemented with 500 μM PLA, CA, or FA for 72 h prior to LC-MS/MS analysis. Data represent the mean of n=3 biologically independent samples ±standard deviation.

[3] = system: UGT84A27 orthologs (AbUGT, BsUGT, DmUGT); assay type: cell-based, Atropa belladonna, Brugmansia sanguinea, D. metel; conditions: all three UGT orthologs, low-copy plasmids in CSY1251; 500 μM substrate, 72 h
Experimental: FIG. 33 illustrates the substrate specificity of UDP-glucosyltransferase 84A27 (UGT84A27) orthologs from TA-producing Solanaceae expressed in engineered yeast. […] (A) Phenylpropanoids tested as glucose (Glu) acceptors for UGT84A27 in engineered yeast. […] (B) Heatmap of percent conversion of fed phenylpropanoids to glucosides by yeast engineered for UGT84A27 expression. UGT84A27 orthologs or a BFP negative control were expressed from low-copy plasmids in CSY1251. Transformed cells were cultured in selective media supplemented with 500 μM PLA, CA, or FA for 72 h prior to LC-MS/MS analysis. Data represent the mean of n=3 biologically independent samples ±standard deviation.

[4] = system: AbLP1; assay: Yeast toxicity assay and growth curves, AD1-8 expressing AbLP1
Text: (§1) Solid lines and shaded/hatched bars respectively indicate mean and standard deviation of n=3 biologically independent samples.
(§2) Heatmap values were extracted from mean growth curves in FIG. 80.
as §1, §1
(§3) Yeast toxicity assays and growth curves. Candidate transporters for use in non-plant cells for the purpose of enhancing or modulating metabolite localization may be characterized in any suitable strain of the non-plant organism of interest. […] An example protocol for the characterization of TA transporters in yeast is provided as follows. […] Strain AD1-8 is transformed as described earlier with a low-copy plasmid harboring a constitutively expressed transporter candidate or blue fluorescent protein as negative control and a suitable auxotrophic marker, such as URA3, LEU2, TRP1, or […]. Transformants are inoculated into 1 mL of selective YNB-G media and grown overnight (˜14-18 h) at 30° C. and 460 rpm. […] Culture densities (OD600) are then measured every 30 min for 48 h in a suitable plate reader, such as a SpectraMax i3 plate reader (Molecular Devices), with chamber temperature 30° C. and orbital shaking every 30 min. […]

[5] = system: AbPUP1; assay: Yeast toxicity assay and growth curves, AD1-8 expressing AbPUP1
Text: as §1, §2, §1, §1, §3

[6] = system: Strain AD1-8; conditions: selective media
Text: as §1, §2, §3

O=C(O)[C@H](O)Cc1ccccc1 [PLA, (D)-3-phenyllactic acid]
percent conversion of fed phenylpropanoid to glucoside [1]: < 3% | percent conversion of fed phenylpropanoid to glucoside [2]: < 3% and 2.7% | percent conversion of fed phenylpropanoid to glucoside [3]: < 3%

CN1[C@@H]2CC[C@H]1C[C@@H](O)C2 [tropine]
sensitivity to alkaloid conferred by transporter expression ([4]; AD1-8 expressing AbLP1, tropine only at 1 mM): not | sensitivity to alkaloid conferred by transporter expression ([5]; AD1-8 expressing AbPUP1, tropine only at 1 mM): not | growth of AD1-8 at tested concentrations higher than 1 mM ([6]; concentrations above 1 mM): severely retarded the growth

CN1[C@@H]2CC[C@H]1CC(OC(=O)[C@H](O)Cc1ccccc1)C2 (stereo partly shown) [littorine]
θHM, ratio of time for half-maximal OD600 at 20 mM relative to at 0 mM ([4]; AD1-8 expressing AbLP1 from low-copy plasmid, selective media, 0-20 mM alkaloid): ~1.1 | θHM, ratio of time for half-maximal OD600 at 20 mM relative to at 0 mM ([5]; AD1-8 expressing AbPUP1 from low-copy plasmid, selective media, 0-20 mM alkaloid): ~1.3 | θHM, ratio of time for half-maximal OD600 at 20 mM relative to at 0 mM ([6]; AD1-8 expressing BFP control from low-copy plasmid, 0-20 mM alkaloid): ~1.0

O=C(O)/C=C/c1ccccc1 [cinnamic acid, trans-cinnamic acid]
percent conversion of fed phenylpropanoid to glucoside [2]: ~60%
